What follows are molecules tested against T1, human TrkA (Homo sapiens, UniProt P04629) (assay: TrkA ELISA assay). Settings: 2.5 nM TrkA, 500 µM ATP, 25 minutes at ambient temperature; read-out: TrkA Elisa Enzyme IC50.
T1 construct: histidine-tagged recombinant human TrkA, cytoplasmic domain; His tag; purchased Invitrogen Corp
Format: biochemical
Protocol: An enzyme-linked immunosorbant assay (ELISA) was used to assess TrkA kinase activity in the presence of inhibitors. […] The assay buffer consisted of 25 mM MOPS pH 7.5, 0.005% (v/v) Triton X-100 and 5 mM MgCl2. The reaction mixture was removed from the plate by washing with PBS containing 0.1% (v/v) Tween 20. […] After the addition of 1M phosphoric acid, the chromogenic substrate color intensity was quantitated via absorbance at 450 nm. IC50 values were calculated using either a 4 or 5-parameter logistic curve fit.

T1 sequence (P04629 440-796 limits assumed): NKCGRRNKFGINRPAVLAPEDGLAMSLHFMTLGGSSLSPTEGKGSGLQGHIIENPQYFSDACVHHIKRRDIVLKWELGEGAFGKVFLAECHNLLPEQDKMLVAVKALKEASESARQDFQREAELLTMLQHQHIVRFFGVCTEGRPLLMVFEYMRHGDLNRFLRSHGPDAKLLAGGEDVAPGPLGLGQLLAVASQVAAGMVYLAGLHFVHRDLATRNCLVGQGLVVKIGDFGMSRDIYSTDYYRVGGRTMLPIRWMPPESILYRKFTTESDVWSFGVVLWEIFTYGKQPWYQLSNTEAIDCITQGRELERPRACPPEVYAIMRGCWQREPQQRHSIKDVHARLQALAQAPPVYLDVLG

Row | Structure (SMILES) | IC50 [nM]
1 | CS(=O)(=O)Nc1ccc(C(=O)Nc2cnc3ccc(N4CCC[C@@H]4c4cc(F)ccc4F)nn23)cc1 [Example 4, (R)-N-(6-(2-(2,5-difluorophenyl)pyrrolidin-1-yl)imidazo[1,2-b]pyridazin-3-yl)-4-(methylsulfonamido)benzamide] | 2.1
2 | N#Cc1cccc(NC(=O)Nc2cnc3ccc(N4CCC[C@@H]4c4cc(F)ccc4F)nn23)c1 [Example 5, (R)-1-(3-cyanophenyl)-3-(6-(2-(2,5-difluorophenyl)pyrrolidin-1-yl)imidazo[1,2-b]pyridazin-3-yl)urea] | 74.2
3 | N#Cc1ccc(NC(=O)Nc2cnc3ccc(N4CCC[C@@H]4c4cc(F)ccc4F)nn23)cc1 [Example 6, (R)-1-(4-cyanophenyl)-3-(6-(2-(2,5-difluorophenyl)pyrrolidin-1-yl)imidazo[1,2-b]pyridazin-3-yl)urea] | 10.7
4 | O=C(Nc1ccc(Cl)cc1Cl)Nc1cnc2ccc(N3CCC[C@@H]3c3cc(F)ccc3F)nn12 [Example 7, (R)-1-(2,4-dichlorophenyl)-3-(6-(2-(2,5-difluorophenyl)pyrrolidin-1-yl)imidazo[1,2-b]pyridazin-3-yl)urea] | 39.4
5 | O=C(Nc1cccc(C(F)(F)F)c1)Nc1cnc2ccc(N3CCC[C@@H]3c3cc(F)ccc3F)nn12 [Example 8, (R)-1-(6-(2-(2,5-difluorophenyl)pyrrolidin-1-yl)imidazo[1,2-b]pyridazin-3-yl)-3-(3-(trifluoromethyl)phenyl)urea] | 508
6 | COc1ccc(NC(=O)Nc2cnc3ccc(N4CCC[C@@H]4c4cc(F)ccc4F)nn23)cc1 [Example 30, (R)-1-(6-(2-(2,5-difluorophenyl)pyrrolidin-1-yl)imidazo[1,2-b]pyridazin-3-yl)-3-(4-methoxyphenyl)urea] | 5.5
7 | COc1cc(NC(=O)Nc2cnc3ccc(N4CCC[C@@H]4c4cc(F)ccc4F)nn23)cc(OC)c1OC [Example 32, (R)-1-(6-(2-(2,5-difluorophenyl)pyrrolidin-1-yl)imidazo[1,2-b]pyridazin-3-yl)-3-(3,4,5-trimethoxyphenyl)urea] | 176
8 | Cc1noc(C)c1NC(=O)Nc1cnc2ccc(N3CCC[C@@H]3c3cc(F)ccc3F)nn12 [Example 33, (R)-1-(6-(2-(2,5-difluorophenyl)pyrrolidin-1-yl)imidazo[1,2-b]pyridazin-3-yl)-3-(3,5-dimethylisoxazol-4-yl)urea] | 901
9 | O=C(Nc1cnc2ccc(N3CCCCC3c3cccc(F)c3)nn12)N1CC(O)C1 (stereo not drawn) [Example 43, N-(6-(2-(3-fluorophenyl)piperidin-1-yl)imidazo[1,2-b]pyridazin-3-yl)-3-hydroxyazetidine-1-carboxamide] | 216
10 | CC(C)(C)OC(=O)N1CCN(C(=O)Nc2cnc3ccc(N4CCC[C@@H]4c4cc(F)ccc4F)nn23)CC1(C)C [Example 48, (R)-tert-butyl 4-(6-(2-(2,5-difluorophenyl)pyrrolidin-1-yl)imidazo[1,2-b]pyridazin-3-ylcarbamoyl)-2,2-dimethylpiperazine-1-carboxylate] | 8.3
11 | Cn1cc(C(=O)Nc2cnc3ccc(N4CCC[C@@H]4c4cc(F)ccc4F)nn23)ccc1=O [Example 56, (R)-N-(6-(2-(2,5-difluorophenyl)pyrrolidin-1-yl)imidazo[1,2-b]pyridazin-3-yl)-1-methyl-6-oxo-1,6-dihydropyridine-3-carboxamide] | 10.2
12 | Cn1nc(C(=O)Nc2cnc3ccc(N4CCC[C@@H]4c4cc(F)ccc4F)nn23)ccc1=O [Example 57, (R)-N-(6-(2-(2,5-difluorophenyl)pyrrolidin-1-yl)imidazo[1,2-b]pyridazin-3-yl)-1-methyl-6-oxo-1,6-dihydropyridazine-3-carboxamide] | 2.3

Reference: patent EP2350075B1, “SUBSTITUTED IMIDAZO[1,2B]PYRIDAZINE COMPOUNDS AS TRK KINASE INHIBITORS” (Array Biopharma, Inc., priority 2008, dated 2010)
